Measurements as given in patent publication US5827895A, “Hexahydrolupulones useful as anticancer agents” (Regents of the University of Minnesota, priority 1996, dated 1998).
≈ marks a conversion by molar mass, not a printed value. Like-named read-outs stand apart in the source and are kept apart here.

What was measured:
[1] = system: Pseudomonas; assay: Minimum inhibitory concentration, Pseudomonas
[2] = system: C1300 cells (mouse neuroblastoma); assay: In vitro ID50 in C1300 mouse neuroblastoma cells; format: cell-based; conditions: Neuroblastoma cell; 48 hours of continuous exposure; preliminary data
Method: C1300 cells (mouse neuroblastoma), a murine tumor cell model which is sensitive to HHC were evaluated.

[3] = system: OxaRSA (Oxacillin Resistant Staphylococcus aureus); assay: Patient isolates evaluated for antibiotic sensitivity, OxaRSA
Method: HHC was also tested for effectiveness against various bacterial isolates obtained from human subjects.

[4] = system: Leishmania tarentolae; assay: Anti-protozoal activity, cell counts of Leishmania tarentolae; format: cell-based; conditions: for activity at 0.1 µM / activity at 0.25 µM / activity at 0.5 µM / activity at 1 µM / activity at 2.5 µM: Leishmania tarentolae, read-out: % control
Method: Leishmania tarentolae was grown in BHI (brain heart infusion; Difco) supplemented with 10 μg/ml of hemin. Leishmanial cells were counted by doing a 1:1 dilution of the cells with 3% formaldehyde/1×SSC (0.15 M NaCl/0.015 M sodium citrate) solution. Cells were seeded at log phase (0.5-1×10^6 cells/ml) in T-25 cm^2 flasks. Equal volumes of HHC at different concentrations (0.1, 0.25, 0.5, 1.0, 2.5 μM) were added to the cells. DMSO at the same volume as that used for HHC was included as solvent control. At each time point (6, 12, 18, 24, 32 hrs post-drug addition), cells were observed under the microscope for possible effect of HHC on Leishmanial motility. Aliquots of cells (100 μl) were removed from each flask at each time point, diluted as mentioned above and cell numbers were quantitated using a hemocytometer.

[5] = system: MCF-7 cells (human breast adenocarcinoma); assay: Trypan blue exclusion assay, cytostatic activity, MCF-7; format: cell-based; conditions: MCF7, incubation 48h, 3 experiments, read-out: ID50 (the source's name)
[6] = system: MCF-7 cells; assay: Colony formation (clonogenic) assay, cytotoxic activity, 18 hour pulse exposure; format: cell-based; conditions: Homo sapiens, MCF7, 2 experiments, read-out: ID50 (the source's name)
Method: HHC was tested for cytotoxic activity using a colony formation assay, using an 18 hour pulse exposure. The purpose of the clonogenic assay is to determine the concentration of HHC at which 50% of cell growth is inhibited (i.e., IC50) when cells are exposed to the HHC for a defined amount of time (i.e., a pulse exposure to the xenobiotic).
Five ml of a mixture of 2×10^5 cells/ml (MCF-7 cells) were placed in each of 4 T-25 flasks in a media of RPMI (Gibco). The cells were incubated at 37 ° C. under 5% CO2 for a minimum of 14 hours to allow the cells to attach. The cells were pulsed for 18 hours with HHC concentrations of 0, 1.5, and 25 μM, or with DMSO.
The media was removed from the flasks (i.e., media with floating cells) and placed in 15 ml polypropylene centrifuge tubes 1-4 (summarized in Table II). […]
The cells in the original cell suspension (i.e., in the flask) were counted using trypan blue exclusion assay (described in Example II). Based on this count, the number of cells in the 50x tubes were calculated. The volume necessary to acquire approximately 5400 cells was then determined. […]
Five ml of suspension from each of tubes 13-16 was transferred to 60×15 mm tissue culture dishes (in triplicate). […] The cells were counted in those colonies which consisted of at least 50 cells. The ID50 was determined as described in Example II.

[7] = system: MRSA (Methicillin Resistant Staphylococcus aureus); assay: Patient isolates evaluated for antibiotic sensitivity, MRSA; conditions: for antibiotic sensitivity: threshold not given
[8] = Staphylococcus aureus, read-out: [HHC] (MIC)

Question: CC(C)CCC1=C(O)C(C(=O)C(C)C)=C(O)C(CCC(C)C)(CCC(C)C)C1=O [HHC, hexahydrocolupulone] was tested. Which MIC [1] did it give?
Answer: Its MIC is greater than 100 µM.

Question: What about the IC50 [2] of the same molecule?
Answer: Its IC50 is roughly 1940 nM.

Question: And the MIC [3, 8]?
Answer: The MIC was 1.01 µg/mL (≈ 2.5 µM).

Question: And the antibiotic sensitivity ([3]; patient G, OxaRSA, threshold not given)?
Answer: Its antibiotic sensitivity is “S”.

Question: And the cells/ml ([4]; 0.1 μM, 6 hr)?
Answer: Its cells/ml is 2.65 no. of cells × 10^6.

Question: What about the cells/ml ([4]; 0.1 μM, 12 hr) of the same molecule?
Answer: Its cells/ml is 6.58 no. of cells × 10^6.

Question: What about the cells/ml ([4]; 0.1 μM, 18 hr) of the same molecule?
Answer: The cells/ml was 12.1 no. of cells × 10^6.

Question: What about the cells/ml ([4]; 0.1 μM, 24 hr) of the same molecule?
Answer: The cells/ml was 21.2 no. of cells × 10^6.

Question: And the cells/ml ([4]; 0.1 μM, 32 hr)?
Answer: The cells/ml was 43.9 no. of cells × 10^6.

Question: And the cells/ml ([4]; 0.25 μM, 6 hr)?
Answer: The cells/ml was 3.0 no. of cells × 10^6.

Question: And the cells/ml ([4]; 0.25 μM, 12 hr)?
Answer: Its cells/ml is 7.35 no. of cells × 10^6.

Question: What about the cells/ml ([4]; 0.25 μM, 18 hr) of the same molecule?
Answer: Its cells/ml is 12.7 no. of cells × 10^6.

Question: And the cells/ml ([4]; 0.25 μM, 24 hr)?
Answer: Its cells/ml is 19.72 no. of cells × 10^6.

Question: What about the cells/ml ([4]; 0.25 μM, 32 hr) of the same molecule?
Answer: Its cells/ml is 40.1 no. of cells × 10^6.

Question: What about the cells/ml ([4]; 0.5 μM, 6 hr) of the same molecule?
Answer: The cells/ml was 2.43 no. of cells × 10^6.

Question: And the cells/ml ([4]; 0.5 μM, 12 hr)?
Answer: The cells/ml was 5.13 no. of cells × 10^6.

Question: And the cells/ml ([4]; 0.5 μM, 18 hr)?
Answer: The cells/ml was 9.22 no. of cells × 10^6.

Question: What about the cells/ml ([4]; 0.5 μM, 24 hr) of the same molecule?
Answer: Its cells/ml is 14.2 no. of cells × 10^6.

Question: And the cells/ml ([4]; 0.5 μM, 32 hr)?
Answer: Its cells/ml is 29.2 no. of cells × 10^6.

Question: And the cells/ml ([4]; 1.0 μM, 6 hr)?
Answer: Its cells/ml is 2.09 no. of cells × 10^6.

Question: And the cells/ml ([4]; 1.0 μM, 12 hr)?
Answer: Its cells/ml is 2.53 no. of cells × 10^6.

Question: And the cells/ml ([4]; 1.0 μM, 18 hr)?
Answer: Its cells/ml is 2.55 no. of cells × 10^6.

Question: What about the cells/ml ([4]; 1.0 μM, 24 hr) of the same molecule?
Answer: Its cells/ml is 2.9 no. of cells × 10^6.

Question: What about the cells/ml ([4]; 1.0 μM, 32 hr) of the same molecule?
Answer: Its cells/ml is 3.4 no. of cells × 10^6.

Question: What about the cells/ml ([4]; 2.5 μM, 6 hr) of the same molecule?
Answer: The cells/ml was 1.81 no. of cells × 10^6.

Question: And the cells/ml ([4]; 2.5 μM, 12 hr)?
Answer: Its cells/ml is 3.03 no. of cells × 10^6.

Question: What about the cells/ml ([4]; 2.5 μM, 18 hr) of the same molecule?
Answer: Its cells/ml is 3.38 no. of cells × 10^6.

Question: And the cells/ml ([4]; 2.5 μM, 24 hr)?
Answer: The cells/ml was 2.13 no. of cells × 10^6.

Question: And the cells/ml ([4]; 2.5 μM, 32 hr)?
Answer: The cells/ml was 2.82 no. of cells × 10^6.

Question: And the activity at 0.1 µM ([4]; 0.1 μM, 6 hr)?
Answer: Its activity at 0.1 µM is 76.4%.

Question: What about the activity at 0.1 µM ([4]; 0.1 μM, 12 hr) of the same molecule?
Answer: The activity at 0.1 µM was 96.6%.

Question: And the activity at 0.1 µM ([4]; 0.1 μM, 18 hr)?
Answer: The activity at 0.1 µM was 96.8%.

Question: What about the activity at 0.1 µM ([4]; 0.1 μM, 24 hr) of the same molecule?
Answer: The activity at 0.1 µM was 118%.

Question: What about the activity at 0.1 µM ([4]; 0.1 μM, 32 hr) of the same molecule?
Answer: The activity at 0.1 µM was 114%.

Question: What about the activity at 0.25 µM ([4]; 0.25 μM, 6 hr) of the same molecule?
Answer: Its activity at 0.25 µM is 86.5%.

Question: What about the activity at 0.25 µM ([4]; 0.25 μM, 12 hr) of the same molecule?
Answer: The activity at 0.25 µM was 103%.

Question: And the activity at 0.25 µM ([4]; 0.25 μM, 18 hr)?
Answer: Its activity at 0.25 µM is 101%.

Question: What about the activity at 0.25 µM ([4]; 0.25 μM, 24 hr) of the same molecule?
Answer: The activity at 0.25 µM was 110%.

Question: What about the activity at 0.25 µM ([4]; 0.25 μM, 32 hr) of the same molecule?
Answer: Its activity at 0.25 µM is 104%.

Question: And the activity at 0.5 µM ([4]; 0.5 μM, 6 hr)?
Answer: Its activity at 0.5 µM is 70%.

Question: And the activity at 0.5 µM ([4]; 0.5 μM, 12 hr)?
Answer: Its activity at 0.5 µM is 72.1%.

Question: And the activity at 0.5 µM ([4]; 0.5 μM, 18 hr)?
Answer: Its activity at 0.5 µM is 73.8%.

Question: What about the activity at 0.5 µM ([4]; 0.5 μM, 24 hr) of the same molecule?
Answer: Its activity at 0.5 µM is 79.3%.

Question: And the activity at 0.5 µM ([4]; 0.5 μM, 32 hr)?
Answer: Its activity at 0.5 µM is 75.6%.

Question: What about the activity at 1 µM ([4]; 1.0 μM, 6 hr) of the same molecule?
Answer: Its activity at 1 µM is 60.2%.

Question: And the activity at 1 µM ([4]; 1.0 μM, 12 hr)?
Answer: Its activity at 1 µM is 35.5%.

Question: And the activity at 1 µM ([4]; 1.0 μM, 18 hr)?
Answer: Its activity at 1 µM is 20.4%.

Question: What about the activity at 1 µM ([4]; 1.0 μM, 24 hr) of the same molecule?
Answer: Its activity at 1 µM is 16.2%.

Question: And the activity at 1 µM ([4]; 1.0 μM, 32 hr)?
Answer: The activity at 1 µM was 8.8%.

Question: And the activity at 2.5 µM ([4]; 2.5 μM, 6 hr)?
Answer: Its activity at 2.5 µM is 52.2%.

Question: And the activity at 2.5 µM ([4]; 2.5 μM, 12 hr)?
Answer: Its activity at 2.5 µM is 42.6%.

Question: And the activity at 2.5 µM ([4]; 2.5 μM, 18 hr)?
Answer: The activity at 2.5 µM was 27%.

Question: What about the activity at 2.5 µM ([4]; 2.5 μM, 24 hr) of the same molecule?
Answer: Its activity at 2.5 µM is 11.9%.

Question: What about the activity at 2.5 µM ([4]; 2.5 μM, 32 hr) of the same molecule?
Answer: Its activity at 2.5 µM is 7.3%.

Question: And the IC50 [5]?
Answer: The IC50 was 1230 nM.

Question: And the IC50 [6]?
Answer: The IC50 was 1620 nM.

Question: And the MIC [7, 8]?
Answer: The MIC was 1.01 µg/mL (≈ 2.5 µM).

Question: And the antibiotic sensitivity ([7]; patient D)?
Answer: Its antibiotic sensitivity is “S”.

Question: What about the “[HHC] (MIC)” value ([7]; patient E) of the same molecule?
Answer: Its value is 1.015 µg/mL.

Question: And the antibiotic sensitivity ([7]; patient E)?
Answer: The antibiotic sensitivity was “S”.

Question: What about the “[HHC] (MIC)” value ([7]; patient F) of the same molecule?
Answer: The value was 1.015 µg/mL.

Question: What about the antibiotic sensitivity ([7]; patient F) of the same molecule?
Answer: Its antibiotic sensitivity is “S”.
